Assay results taken from US7056697B2, “FabK variant” (priority 2000, dated 2006).

System: FabK
Assay: FabK activity assay (crotonoyl-ACP reduction, NADH oxidation monitored at 340 nm)
Format: biochemical, Streptococcus pneumoniae
Conditions: NH4+ at 100 mM; greatest activation
Protocol: FabK catalyses the reduction of enoyl-ACPs with the concommitant oxidation of NADH. Crotonoyl-ACP can be prepared as described below. The reduction of crotonoyl-ACP to butyryl-ACP can be monitored by following the change in absorbance at 340 nm as NADH is oxidised.
Assays were carried out in Costar 3696 half-area plates in a final assay volume of 150 ul on a Spectramax platereader. Substrates, NADH and crotonoyl ACP, were incubated with FabK enzyme in 100 mM N-[2-acetamido]-2 iminodiacetic acid (ADA), pH 6.5, 100 mM NH4Cl, 4% glycerol at 30° C. and the reaction monitored at 340 nm. This assaying can also be performed using crotonyl CoA, NADPH or an NADH analogue as a substrate.

`N` [NH4^+] was tested, and the “activation of the FabK reaction over the reaction with no monovalent cations” value was “about 300 fold”.
